The source of these data is patent US20230339882A1, “SHP2 INHIBITOR AND COMPOSITION AND APPLICATION THEREOF” (Betta Pharmaceuticals Co., Ltd., priority 2020, published 2023).

Read-outs that look alike come from different tables or passages of the source.

The nature of data set [1]: In vitro metabolic stability in liver microsomes, monkey. The data set is classed as in vitro ADME. In general terms: Liver microsomes are vesicles of endoplasmic reticulum, rich in cytochrome P450 enzymes.
Data set [2] is described as follows: In vitro metabolic stability in liver microsomes, dog. The settings on record: dog, microsomes. In kind it is in vitro ADME.
Data set [3] is described as follows: In vitro metabolic stability in liver microsomes, rat. In kind it is in vitro ADME. A digest of the protocol:
(§1)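 Liver microsomes (20 mg/mL stock; species per assay) pre-incubated with test compound at 37 °C for 10 min in phosphate buffer pH 7.30 with MgCl2, reaction started with NADPH. Samples taken at 0, 5, 15 and 45 min and quantified by LC-MS/MS. t½ and CLint derived from first-order log-linear decline of percentage remaining.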

The nature of data set [4]: In vitro metabolic stability in liver microsomes, mouse. The data set is classed as in vitro ADME.
Data set [5] can be described thus: In vitro metabolic stability in liver microsomes, human. The data set is classed as in vitro ADME. A digest of the protocol: as §1
Data set [6] concerns the target T1, SHP2 (Homo sapiens (Human), UniProt Q06124). In words: SHP2 allosteric inhibitory enzyme activity assay (DiFMUP fluorescence). The data set is classed as biochemical. The settings on record: read-out: SHP2 enzymatic activity IC50. A digest of the protocol:
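Human SHP2 (0.2 ng) preincubated 1 h at room temperature with 25 µM activating peptide IRS1_pY1172(dPEG8)pY1222 and compound (10-point series from 10 µM) in HEPES/NaCl/KCl/BRIJ-35/EDTA/DTT buffer. DiFMUP then added for 1 h; fluorescence at ex 340/em 450 nm, normalized to no-enzyme and no-inhibitor controls, IC50 from variable-slope fit.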

In data set [7] the test system is leukemia cells MV-4-11. In words: Cell proliferation assay, CELL TITER-GLO (CTG) luminescence, MV-4-11. In kind it is cell-based. A digest of the protocol: (§2)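 NCI-H358 (2000 cells/well, ultra-low-attachment plates) and MV-4-11 cells were dosed 24 h after seeding at 1000 nM down to 0.1524 nM (3-fold steps). Viable-cell ATP was read by CellTiter-Glo luminescence after 96 h for NCI-H358 and 120 h for MV-4-11. IC50 came from a variable-slope fit of inhibition versus the 0 nM control.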

In data set [8] the test system is lung cancer cells NCI-H358. In words: Cell proliferation assay, CELL TITER-GLO (CTG) luminescence, NCI-H358. To be noted: cultured for 96 hrs. In kind it is cell-based. The procedure, abridged:
as §2

Data set [9] has as its target T2, hERG potassium channel (Homo sapiens (Human), UniProt Q12809).
Procedure: (§3) Example C Patch Clamp Experiments to Assess the Effects of Compounds on the hERG Ion Channel
(§4) Dilute the test sample diluent in sequence with extracellular fluid to prepare detection solutions with final concentrations of 0.3 µM, 1 µM, 3 µM, 10 µM and 30 µM. The solubility of the samples to be tested was visually checked.
(§5) The cell line was derived from HEK293 cells and cultured in a 37° C., 5% CO2 incubator. In order to prevent cell senescence caused by contact inhibition, when the cell culture confluence should not exceed 80%, the cells should be passaged every ¾ days, and the inoculation density of each T175 flask should be 2*106 cells. Pre-wash with Phosphate Buffered Saline (PBS), then trypsin/EDTA for 2-3 minutes, stop digestion by adding cell culture medium, and transfer to a new culture bottle.
(§6) HEK293 cells overexpressing the hERG potassium channel were cultured overnight at a cell density below 50%. Experimental cells were transferred to a cell bath embedded in an inverted microscope stage(Diaphot, Nikon) and perfused with extracellular fluid. The extracellular fluid contained 130 mM NaCl, 4 mM KCl, 1.8 mM CaCl2, 1 mM MgCl2, 10 mM glucose and 10 mM HEPES (pH 7.4 with NaOH) at a perfusion rate of 4 ml/min. The inner tube contains 130 mM KCl, 1 mM MgCl2, 5 mM EGTA, 5 mM MgATP and 10 mM HEPES (pH 7.2 with KOH). Membrane currents were recorded using a HEKA EPC-10 patch-clamp amplifier and [sequence] acquisition system (HEKA Instruments Inc., D-67466 Lambrecht, Pfalz, Germany). All experiments were done at room temperature (22-23° C.).
(§7) Electrodes (BF150-86-10) were straightened during the experiments using a P-97 microelectrode puller (Sutter Instrument Company, One Digital Drive, Novato, CA 94949). The inner diameter of the electrode is 1-1.5 mm, and the water entry resistance after filling with internal liquid is 2-4 MΩ.
(§8) When the whole-cell seal is formed, wait for the current to stabilize for 2 minutes (the current decay is less than 5% within 5 minutes, and the tail current value is greater than500 pA). At this time, the peak value of the tail current is the control current value. The extracellular fluid containing the drug to be tested is then perfused. The same procedure was repeated 3-5 times, exposing each cell to 4-6 increasing concentrations of compounds. Blocking and deactivation of hERG during compound exposure and washout were continuously recorded.
(§9) When the whole-cell seal was formed, the cell membrane voltage was clamped at -80 mV, depolarized for 2 seconds every 12 seconds, and the clamping voltage was depolarized from -80 mV to -50 mV under a 5-second repolarization pulse of -50 mV. Measure the peak tail current.
(§10) Peak hERG tail currents were measured under a 5 s repolarization pulse of -50 mV. Each drug concentration was plotted against the current inhibition rate as a function of the logarithm of the compound concentration. The following Hill equation was used to fit a concentration-response curve to fit IC50.
(§11) Y: test value; Bottom: the lowest test value (0); Top: the highest test value (1); Hillcoefficient: the maximum absolute value of the slope of the curve.
(§12) Data are presented as mean ± standard deviation.
The target of data set [10] is T2, hERG potassium channel. The experiment in a line: Patch clamp experiments on the hERG ion channel (HEK293 cells overexpressing hERG).
Procedure: as §3, §4, §5, §6, §7, §8, §9, §10, §11, §12
Data set [11] deals with T1, SHP2. The settings on record: according to WO2019183367, cited from earlier work.

T1 sequence (Q06124 whole entry): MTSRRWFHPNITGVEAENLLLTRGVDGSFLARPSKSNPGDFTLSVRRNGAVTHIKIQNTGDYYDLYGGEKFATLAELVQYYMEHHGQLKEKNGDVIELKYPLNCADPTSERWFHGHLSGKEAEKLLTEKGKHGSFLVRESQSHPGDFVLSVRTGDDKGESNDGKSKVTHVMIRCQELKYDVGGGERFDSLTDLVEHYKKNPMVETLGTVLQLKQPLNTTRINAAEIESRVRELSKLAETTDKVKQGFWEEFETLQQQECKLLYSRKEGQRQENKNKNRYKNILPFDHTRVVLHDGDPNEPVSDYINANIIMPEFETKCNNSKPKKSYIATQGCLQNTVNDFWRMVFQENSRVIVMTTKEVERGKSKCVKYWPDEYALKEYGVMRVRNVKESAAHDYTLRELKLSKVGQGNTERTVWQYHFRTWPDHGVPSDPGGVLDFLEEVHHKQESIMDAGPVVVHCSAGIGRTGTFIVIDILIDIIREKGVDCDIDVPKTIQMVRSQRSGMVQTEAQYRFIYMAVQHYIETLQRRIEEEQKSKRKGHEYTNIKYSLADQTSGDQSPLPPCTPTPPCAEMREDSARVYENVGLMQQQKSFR
T2 sequence (Q12809 whole entry): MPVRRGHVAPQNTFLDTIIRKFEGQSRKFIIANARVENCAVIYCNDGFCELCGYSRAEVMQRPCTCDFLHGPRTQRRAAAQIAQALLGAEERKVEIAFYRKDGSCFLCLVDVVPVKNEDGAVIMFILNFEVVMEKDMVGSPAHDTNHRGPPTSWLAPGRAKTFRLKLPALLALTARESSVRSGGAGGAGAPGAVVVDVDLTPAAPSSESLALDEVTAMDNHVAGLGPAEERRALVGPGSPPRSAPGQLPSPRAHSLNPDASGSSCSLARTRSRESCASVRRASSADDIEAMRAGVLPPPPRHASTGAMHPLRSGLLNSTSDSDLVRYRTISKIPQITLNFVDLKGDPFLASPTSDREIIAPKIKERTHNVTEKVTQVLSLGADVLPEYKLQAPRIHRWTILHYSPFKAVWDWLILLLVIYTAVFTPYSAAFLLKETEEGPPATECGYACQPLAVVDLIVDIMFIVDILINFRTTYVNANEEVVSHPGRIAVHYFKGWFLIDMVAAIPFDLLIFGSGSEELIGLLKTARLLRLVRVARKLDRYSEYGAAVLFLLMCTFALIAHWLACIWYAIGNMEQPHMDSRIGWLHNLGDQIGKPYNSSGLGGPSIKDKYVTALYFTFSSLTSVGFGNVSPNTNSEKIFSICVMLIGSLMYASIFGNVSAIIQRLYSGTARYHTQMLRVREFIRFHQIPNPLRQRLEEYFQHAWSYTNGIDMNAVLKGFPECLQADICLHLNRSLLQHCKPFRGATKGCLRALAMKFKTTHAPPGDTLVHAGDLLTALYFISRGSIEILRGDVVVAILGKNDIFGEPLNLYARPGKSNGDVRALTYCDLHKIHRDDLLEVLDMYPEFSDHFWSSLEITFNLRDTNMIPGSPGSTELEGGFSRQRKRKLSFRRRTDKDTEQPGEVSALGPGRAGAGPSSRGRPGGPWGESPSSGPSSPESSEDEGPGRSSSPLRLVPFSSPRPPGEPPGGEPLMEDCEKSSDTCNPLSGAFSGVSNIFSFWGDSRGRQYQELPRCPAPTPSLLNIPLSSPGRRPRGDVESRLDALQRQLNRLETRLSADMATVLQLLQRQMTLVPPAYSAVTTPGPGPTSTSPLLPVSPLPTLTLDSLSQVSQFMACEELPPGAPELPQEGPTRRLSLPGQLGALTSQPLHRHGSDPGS

What is called IC50 is the concentration needed to halve the response being measured. In the case of `NC(=O)c1ccc(NCC#Cc2cnc(N3CCC4(CC3)Cc3ccccc3[C@H]4N)c(CO)n2)cc1` [Compound A48, (S)-4-((3-(5-(1-amino-1,3-dihydrospiro[indene-2,4′-piperidin]-1′-yl)-6-(hydroxymethy 1)pyrazin-2-yl)prop-2-yn-1-yl)amino)benzamide], the “CLint (µL/min/mg protein) monkey” value in data set [1] came out at 8.6 µL/min/mg protein. Moreover, in data set [2], the “CLint (µL/min/mg protein) dog” value is 26.3 µL/min/mg protein. In addition, the “CLint (µL/min/mg protein) rat” value in data set [3] is given as 15.8 µL/min/mg protein. The “CLint (µL/min/mg protein) mouse” value in [4] is 15.2 µL/min/mg protein. The “CLint (µL/min/mg protein) human” value in data set [5] is given as 7.3 µL/min/mg protein. The IC50 in [6] is 2 nM; in [7] (cultured for 120 hrs), 1.7 nM; in data set [8] (ultra-low adsorption plate), 12 nM; in data set [9], over 20000 nM.

As to `NC(=O)Cc1cccc(OCC#Cc2cnc(N3CCC4(CC3)Cc3ccccc3[C@H]4N)c(CO)n2)c1` [Compound A59, (S)-2-(3-((3-(5-(1-amino-1,3-dihydrospiro[indene-2,4′-piperidin]-1′-yl)-6-(hydroxymethyl)pyrazin-2-yl)prop-2-yn-1-yl)oxy)phenyl)acetamide], the microsomal CLint at 2 µM was 15.9 µL/min/mg in data set [1] (pH 7.3, read-out: CLint (µL/min/mg protein) monkey); 14.9 µL/min/mg in data set [2] (pH 7.3); 16.2 µL/min/mg in data set [3] (pH 7.3, read-out: CLint (µL/min/mg protein) rat); 16.8 µL/min/mg in data set [4] (pH 7.3, read-out: CLint (µL/min/mg protein) mouse); 10.7 µL/min/mg in [5] (pH 7.3, read-out: CLint (µL/min/mg protein) human). In addition, the 50% inhibitory concentration (IC50) in data set [10] is 26000 nM; in data set [6], 1.1 nM; in data set [7] (Homo sapiens, MV4-11, cultured for 120 hrs) it was 1 nM; in data set [8] (Homo sapiens, NCI-H358, ultra-low adsorption plate) it was 5.8 nM.

`N[C@@H]1c2ccccc2CC12CCN(c1ncc(Sc3ccnc(Cl)c3Cl)nc1CO)CC2` [compound 243]: the 50% inhibitory concentration (IC50) in [11] (read-out: IC50 in the SHP2 allosteric inhibition test (lower bound)) is over 50 nM; in data set [11] (read-out: IC50 in the SHP2 allosteric inhibition test (upper bound)), at most 1000 nM.
